From PMC5338263, “GS-5734 and its parent nucleoside analog inhibit Filo-, Pneumo-, and Paramyxoviruses” (Scientific Reports, 2017)
Entries after “also recorded” stand apart in the source; their conditions may differ. Like-named read-outs stand apart in the source and are kept apart here.

Tests used:
[1] = Cell viability assay (CellTiter-Glo 2.0), A549; settings: human, uninfected A549 cells
[2] = test system: Filo (filoviruses); experiment: organism not typed; type: cell-based; settings: read-out: potency class (EC50)
[3] = test system: ANDV Chile 9717869; experiment: microbe, parasite or virus in culture; settings: Orthohantavirus andesense, Huh-7
[4] = test system: RSV Rec. rgRSV224 (A2) (respiratory syncytial virus); experiment: in vitro; settings: human
[5] = Cell viability assay (CellTiter-Glo 2.0), macrophages; settings: human, uninfected peripheral blood macrophages (Mϕ)
[6] = test system: Ebola virus; settings: in vivo; cited from earlier work
[7] = test system: Rhabdo; experiment: Potency by virus family (Fig. 2), Rhabdo; type: cell-based; settings: read-out: potency class (EC50)
[8] = test system: Arena; experiment: Potency by virus family (Fig. 2), Arena; type: cell-based; settings: read-out: potency class (EC50)
[9] = test system: EBOV minigenome; experiment: cells; type: cell-based, Ebola virus
[10] = test system: NiV M-1999; experiment: microbe, parasite or virus in culture; type: cell-based, Nipah virus; settings: Henipavirus nipahense, HeLa
[11] = test system: NiV minigenome; experiment: cells; type: cell-based, Nipah virus
[12] = test system: AHFV 200300001
[13] = test system: CCHF Rec. IbAr 10200; experiment: organism not typed; type: cell-based, Crimean Congo Hemorrhagic Fever virus
[14] = test system: LASV Josiah (Lassa virus); experiment: in vitro; settings: human
[15] = test system: MARV Rec. Bat371-Gluc; experiment: organism not typed; settings: Huh-7
[16] = test system: MuV IA 2006; experiment: microbe, parasite or virus in culture; settings: Mumps orthorubulavirus, HeLa
[17] = test system: EBOV Rec. Makona-ZSG; experiment: microbe, parasite or virus in culture; settings: Zaire ebolavirus, Huh-7
[18] = test system: OHFV Bogoluvovska (Omsk Hemorrhagic Fever virus); experiment: in vitro; settings: human
[19] = test system: NiV B-2004 (Nipah virus); experiment: in vitro; settings: human
[20] = test system: Paramyxo; experiment: Potency by virus family (Fig. 2), Paramyxo; type: cell-based; settings: read-out: potency class (EC50)
[21] = test system: RSV Rec. rgRSV224 (A2)
[22] = test system: HeV 1996; experiment: microbe, parasite or virus in culture; settings: Henipavirus hendraense, HeLa
[23] = test system: KFDV P9605 (Kyasanur Forest Disease virus); experiment: in vitro; settings: human
[24] = test system: Filo (filoviruses); settings: cited from earlier work
[25] = Cell viability assay (CellTiter-Glo 2.0), HeLa; settings: human, uninfected HeLa cells
[26] = test system: reporter and wild-type filo-, pneumo-, and paramyxoviruses; experiment: organism not typed; settings: read-out: EC50 values (range over viruses)
[27] = Cell viability assay (CellTiter-Glo 2.0), HMVEC-L; settings: human
[28] = test system: HeV 1996
[29] = test system: MV Rec. rMV^EZGFP(3)
[30] = test system: Corona (coronaviruses); settings: cited from earlier work
[31] = test system: EBOV Rec. Mayinga-Gluc
[32] = test system: HeV 1996 (Hendra virus); experiment: in vitro; settings: human
[33] = test system: Bunya; experiment: Potency by virus family (Fig. 2), Bunya; type: cell-based; settings: read-out: potency class (EC50)
[34] = test system: MV, hPIV3, hMPV, and RSV; experiment: organism not typed; type: cell-based; settings: read-out: EC50 values (range over viruses)
[35] = test system: MuV IA 2006
[36] = test system: SARS-CoV; settings: cited from earlier work
[37] = test system: recombinant reporter-expressing NiV, EBOV, and Marburg viruses (MARV); experiment: microbe, parasite or virus in culture; type: cell-based; settings: Zaire ebolavirus, read-out: EC50 values (range over viruses)
[38] = test system: NiV B-2004 (Nipah virus); experiment: in vitro; settings: human; remark: listed apart in the source
[39] = test system: HeV 1996 (Hendra virus); experiment: in vitro; settings: human; remark: listed apart in the source
[40] = test system: hPIV3; settings: cited from earlier work
[41] = test system: EBOV Rec. Mayinga-GFP
[42] = test system: WNV; settings: cited from earlier work
[43] = test system: MV EZ vaccine; experiment: microbe, parasite or virus in culture; settings: Measles morbillivirus, HeLa
[44] = test system: hMPV Rec. CAN97-83-GFP; experiment: microbe, parasite or virus in culture; type: cell-based; settings: human metapneumovirus, Vero
[45] = Cell viability assay (CellTiter-Glo 2.0), 293T/17; settings: human, uninfected 293T/17 cells

## CCC(CC)COC(=O)[C@H](C)N[P@](=O)(OC[C@H]1O[C@@](C#N)(c2ccc3c(N)ncnn23)[C@H](O)[C@@H]1O)Oc1ccccc1 [GS-5734]
[1]
  CC50 at 72 h: > 10000 nM
[2]
  EC50: < 100 nM
[3]
  EC50: 6950 ± 3100 nM
  EC90: 10100 nM
[4]
  selectivity ratio: 395
[5]
  CC50 at 72 h: 2000 nM
[6]
  protection from lethal Ebola virus infection: protected
[7]
  EC50: > 4000 nM
[8]
  EC50: > 4000 nM
[9]
  EC50: sub-micromolar range
[9]; Zaire ebolavirus, Huh-7, 48 h
  EC50: 420 nM
[10]
  EC50: 65.5 ± 16 nM
[11]
  EC50: sub-micromolar range
[11]; Henipavirus nipahense, HeLa, 48 h
  EC50: 49 nM
[12]
  EC50: 4200 nM
[13]
  EC50: minimal to no antiviral activity; also recorded: No inhibition
[13]; Huh-7
  EC50: > 10000 nM
[14]
  selectivity ratio: 2.2
[15]
  EC50: 19.3 nM
  EC90: 52 nM
[16]
  EC50: 790 nM
  EC90: 3400 nM
[17]
  EC50: 13.6 ± 1 nM
  EC90: 45 nM
[18]
  selectivity ratio: 8.3
[19]
  selectivity ratio: 259
[20]
  EC50: < 100 nM
[21]
  EC50: 21 nM
[22]
  EC50: 54.8 ± 1.3 nM
  EC90: 117 nM
[23]
  selectivity ratio: 5.6
[24]
  activity in cell-based antiviral assays: shown activity
[25]
  CC50 at 72 h: 8300 nM
[26]
  EC50: 3 to 790 nM
[27]
  CC50 at 72 h: 8500 nM
[28]
  EC50: 55 nM
[29]
  EC50: 37 nM
[30]
  activity in cell-based antiviral assays: shown activity
[31]
  EC50: 21 nM
[32]
  selectivity ratio: 150
[33]
  EC50: > 4000 nM

## N#C[C@@]1(c2ccc3c(N)ncnn23)O[C@H](CO)[C@@H](O)[C@H]1O [Nuc]
[34]
  EC50: 500 to 2000 nM
[35]
  EC50: 9700 nM
[4]
  selectivity ratio: 79
[36]
  antiviral activity (active or not): shown to have activity
[37]
  EC50: 1000 to 3000 nM
[38]
  selectivity ratio: 60
[13]
  EC50: little to no antiviral activity; also recorded: No inhibition
[13]; Huh-7
  EC50: > 50000 nM
[39]
  selectivity ratio: 50
[16]
  EC50: 7000 to 12000 nM
  EC90: 26300 nM
[17]
  EC50: 1280 ± 140 nM
  EC90: 3300 nM
[40]
  antiviral activity (active or not): shown to have activity
[41]
  EC50: 1600 nM
[42]
  antiviral activity (active or not): not
[25]
  CC50 at 72 h: > 50000 nM
[43]
  EC50: 2010 nM
  EC90: 5100 nM
[44]
  EC50: 730 nM
  EC90: 1700 nM
[45]
  CC50 at 72 h: > 50000 nM
[29]
  EC50: 1000 nM
